{"source": "paper PMC5098229", "about": "“A Novel Non-Peptidic Agonist of the Ghrelin Receptor with Orexigenic Activity In vivo” (Scientific Reports, 2016)", "biological_target": "T1, GHS-R1a receptor (ghrelin receptor) (Homo sapiens, UniProt Q92847)", "T1 construct": "gene GHSR; human GHS-R1a with C-terminal EGFP tag, stably expressed in Hek293a cells", "T1 sequence (Q92847 whole entry)": "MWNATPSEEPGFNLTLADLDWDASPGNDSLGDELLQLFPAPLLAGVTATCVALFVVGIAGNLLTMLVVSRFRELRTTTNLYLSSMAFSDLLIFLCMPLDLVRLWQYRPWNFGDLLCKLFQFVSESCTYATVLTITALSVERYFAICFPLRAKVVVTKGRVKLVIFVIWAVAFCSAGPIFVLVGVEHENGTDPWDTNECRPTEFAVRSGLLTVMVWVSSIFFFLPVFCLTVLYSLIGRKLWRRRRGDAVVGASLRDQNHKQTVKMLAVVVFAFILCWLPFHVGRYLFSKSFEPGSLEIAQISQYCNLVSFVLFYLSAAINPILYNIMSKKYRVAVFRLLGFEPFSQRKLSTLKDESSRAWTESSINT", "assay": "calcium mobilisation in Hek-GHS-R1a-EGFP cells; no response in wild-type Hek or 5-HT2C cells; reduced by JMV2959", "assay_type": "cell-based"}
{"smiles": "COc1cc(C)n(C)c(=O)c1C(F)(F)F", "note": "[compound 8, 4-Methoxy-1,6-dimethyl-3-(trifluoromethyl)pyridin-2(1H)-one]", "values": [{"measurement": "EC50", "result": 3.1, "unit": "µM"}]}
